{"source": "patent US20260207606A1", "about": "“DOSING SCHEDULE OF A SOLID DISPERSION OF A HER2 INHIBITOR” (Boehringer Ingelheim International GmbH, priority 2022, published 2026)", "system": "NSCLC", "assay": "Phase Ia dose escalation trial: tumour response according to RECIST v1.1 in NSCLC patients", "assay_type": "in vivo, human", "details": "for Best overall response (RECIST 1.1): Progressive disease, % / Best overall response (RECIST 1.1): Stable disease, % / Best overall response (RECIST 1.1): Complete response, % / Best overall response (RECIST 1.1): Non-CR/Non-PD, % / Best overall response (RECIST 1.1): Not evaluable, % / Best overall response (RECIST 1.1): Partial response, %: regardless of confirmation, data lock 16 Mar. 2023", "description": "Tumour assessments should include computed tomography (CT) scans of the chest, abdomen/pelvis (or PET/CT) and a brain MRI at screening. If clinically indicated, imaging of any other known or suspected sites of disease (e.g. bone) using an appropriate method (CT scan, MRI, PET/CT, or bone scan) should be performed. The same radiographic procedure must be used throughout the trial. Assessments will be performed by the investigator at screening (≤28 days prior to initiation of treatment), every 2 cycles (6 weeks ±5 days), at the end-of-treatment (EOT) visit (if not performed within the previous 3 weeks), and at the discretion of the investigator, and copies may be collected by the sponsor or designee. Wherever possible the assessment schedule should not be changed, but if there is an interruption or delay to treatment, alteration of the tumour assessment schedule to align with clinical assessments is allowed. Additional unscheduled tumour assessments may be performed at the discretion of the investigator. If the patient stops trial medication for a reason other than progression, tumour assessment according to RECIST v1.1 continues until progression (or until one of the following occurs; death, lost to follow-up, end of the trial).\nTumour response is evaluated according to RECIST Version 1.1 (Eisenhauer E A, Therasse P, Bogaerts J, Schwartz L H, Sargent D, Ford R, et al. New response evaluation criteria in solid tumours: revised RECIST guideline (version 1.1). Eur J Cancer. 2009; 45:228-247). RECIST 1.1 is used for a) whole-body assessment (classical RECIST 1.1) and b) the tumour assessment of non-CNS areas. The assessment according to classical RECIST 1.1 by the investigator and/or the local radiologist is the basis for continuation or discontinuation of the trial in an individual patient (in addition to safety). No whole-body RECIST assessment is performed in the dose escalation part.", "key": {"[1]": {"details": "5 NSCLC patients pre-treated with trastuzumab deruxtecan, data cut-off 17 Jul. 2023"}}, "data": [{"smiles": "C=CC(=O)NC1CCN(c2ncc3ncnc(Nc4ccc(Oc5ccc6c(c5)ncn6C)c(C)c4)c3n2)CC1", "note": "[compound (1), N-{1-[8-({3-methyl-4-[(1-methyl-1H-1,3-benzodiazol-5-yl)oxy]phenyl}amino)-[1,3]diazino[5,4-d]pyrimidin-2-yl]piperidin-4-yl}prop-2-enamide]", "values": [{"measurement": "Best overall response (RECIST 1.1): Progressive disease, %", "setting": "100 mg BID, 3 NSCLC patients", "value": 0.0, "unit": "%"}, {"measurement": "Best overall response (RECIST 1.1): Stable disease, %", "setting": "100 mg BID, 3 NSCLC patients", "value": 66.7, "unit": "%"}, {"measurement": "Best overall response (RECIST 1.1): Complete response, %", "setting": "120 mg QD, 4 NSCLC patients", "value": 0.0, "unit": "%"}, {"measurement": "Best overall response (RECIST 1.1): Non-CR/Non-PD, %", "setting": "120 mg QD, 4 NSCLC patients", "value": 0.0, "unit": "%"}, {"measurement": "Best overall response (RECIST 1.1): Not evaluable, %", "setting": "120 mg QD, 4 NSCLC patients", "value": 0.0, "unit": "%"}, {"measurement": "Best overall response (RECIST 1.1): Partial response, %", "setting": "120 mg QD, 4 NSCLC patients", "value": 50.0, "unit": "%"}, {"measurement": "Best overall response (RECIST 1.1): Progressive disease, %", "setting": "120 mg QD, 4 NSCLC patients", "value": 25.0, "unit": "%"}, {"measurement": "Best overall response (RECIST 1.1): Stable disease, %", "setting": "120 mg QD, 4 NSCLC patients", "value": 25.0, "unit": "%"}, {"measurement": "Best overall response (RECIST 1.1): Complete response, %", "setting": "150 mg BID, 2 NSCLC patients", "value": 0.0, "unit": "%"}, {"measurement": "Best overall response (RECIST 1.1): Non-CR/Non-PD, %", "setting": "150 mg BID, 2 NSCLC patients", "value": 0.0, "unit": "%"}, {"measurement": "Best overall response (RECIST 1.1): Not evaluable, %", "setting": "150 mg BID, 2 NSCLC patients", "value": 0.0, "unit": "%"}, {"measurement": "Best overall response (RECIST 1.1): Partial response, %", "setting": "150 mg BID, 2 NSCLC patients", "value": 50.0, "unit": "%"}, {"measurement": "Best overall response (RECIST 1.1): Progressive disease, %", "setting": "150 mg BID, 2 NSCLC patients", "value": 0.0, "unit": "%"}, {"measurement": "Best overall response (RECIST 1.1): Stable disease, %", "setting": "150 mg BID, 2 NSCLC patients", "value": 50.0, "unit": "%"}, {"measurement": "Best overall response (RECIST 1.1): Complete response, %", "setting": "180 mg QD, 5 NSCLC patients", "value": 0.0, "unit": "%"}, {"measurement": "Best overall response (RECIST 1.1): Non-CR/Non-PD, %", "setting": "180 mg QD, 5 NSCLC patients", "value": 0.0, "unit": "%"}, {"measurement": "Best overall response (RECIST 1.1): Not evaluable, %", "setting": "180 mg QD, 5 NSCLC patients", "value": 20.0, "unit": "%"}, {"measurement": "Best overall response (RECIST 1.1): Partial response, %", "setting": "180 mg QD, 5 NSCLC patients", "value": 20.0, "unit": "%"}, {"measurement": "Best overall response (RECIST 1.1): Progressive disease, %", "setting": "180 mg QD, 5 NSCLC patients", "value": 0.0, "unit": "%"}, {"measurement": "Best overall response (RECIST 1.1): Stable disease, %", "setting": "180 mg QD, 5 NSCLC patients", "value": 60.0, "unit": "%"}, {"measurement": "Best overall response (RECIST 1.1): Complete response, %", "setting": "240 mg QD, 5 NSCLC patients", "value": 0.0, "unit": "%"}, {"measurement": "Best overall response (RECIST 1.1): Non-CR/Non-PD, %", "setting": "240 mg QD, 5 NSCLC patients", "value": 0.0, "unit": "%"}, {"measurement": "Best overall response (RECIST 1.1): Not evaluable, %", "setting": "240 mg QD, 5 NSCLC patients", "value": 60.0, "unit": "%"}, {"measurement": "Best overall response (RECIST 1.1): Partial response, %", "setting": "240 mg QD, 5 NSCLC patients", "value": 40.0, "unit": "%"}, {"measurement": "Best overall response (RECIST 1.1): Progressive disease, %", "setting": "240 mg QD, 5 NSCLC patients", "value": 0.0, "unit": "%"}, {"measurement": "Best overall response (RECIST 1.1): Stable disease, %", "setting": "240 mg QD, 5 NSCLC patients", "value": 0.0, "unit": "%"}, {"measurement": "Best overall response (RECIST 1.1): Complete response, %", "setting": "300 mg QD, 5 NSCLC patients", "value": 0.0, "unit": "%"}, {"measurement": "Best overall response (RECIST 1.1): Non-CR/Non-PD, %", "setting": "300 mg QD, 5 NSCLC patients", "value": 0.0, "unit": "%"}, {"measurement": "Best overall response (RECIST 1.1): Not evaluable, %", "setting": "300 mg QD, 5 NSCLC patients", "value": 80.0, "unit": "%"}, {"measurement": "Best overall response (RECIST 1.1): Partial response, %", "setting": "300 mg QD, 5 NSCLC patients", "value": 0.0, "unit": "%"}, {"measurement": "Best overall response (RECIST 1.1): Progressive disease, %", "setting": "300 mg QD, 5 NSCLC patients", "value": 0.0, "unit": "%"}, {"measurement": "Best overall response (RECIST 1.1): Stable disease, %", "setting": "300 mg QD, 5 NSCLC patients", "value": 20.0, "unit": "%"}, {"measurement": "tumour shrinkage, mean", "setting": "[1]", "value": "−22.5", "unit": "%"}, {"measurement": "tumour shrinkage, median", "setting": "[1]", "value": "−16.1", "unit": "%"}, {"measurement": "tumour shrinkage, up to", "setting": "[1]", "value": "−53", "unit": "%"}, {"measurement": "Best overall response (RECIST 1.1): Complete response, %", "setting": "BID Total, 11 NSCLC patients", "value": 0.0, "unit": "%"}, {"measurement": "Best overall response (RECIST 1.1): Non-CR/Non-PD, %", "setting": "BID Total, 11 NSCLC patients", "value": 0.0, "unit": "%"}, {"measurement": "Best overall response (RECIST 1.1): Not evaluable, %", "setting": "BID Total, 11 NSCLC patients", "value": 0.0, "unit": "%"}, {"measurement": "Best overall response (RECIST 1.1): Progressive disease, %", "setting": "BID Total, 11 NSCLC patients", "value": 0.0, "unit": "%"}, {"measurement": "Best overall response (RECIST 1.1): Stable disease, %", "setting": "BID Total, 11 NSCLC patients", "value": 54.5, "unit": "%"}, {"measurement": "Best overall response (RECIST 1.1): Complete response, %", "setting": "QD Total, 21 NSCLC patients", "value": 0.0, "unit": "%"}, {"measurement": "Best overall response (RECIST 1.1): Non-CR/Non-PD, %", "setting": "QD Total, 21 NSCLC patients", "value": 0.0, "unit": "%"}, {"measurement": "Best overall response (RECIST 1.1): Not evaluable, %", "setting": "QD Total, 21 NSCLC patients", "value": 38.1, "unit": "%"}, {"measurement": "Best overall response (RECIST 1.1): Partial response, %", "setting": "QD Total, 21 NSCLC patients", "value": 28.6, "unit": "%"}, {"measurement": "Best overall response (RECIST 1.1): Progressive disease, %", "setting": "QD Total, 21 NSCLC patients", "value": 4.8, "unit": "%"}, {"measurement": "Best overall response (RECIST 1.1): Stable disease, %", "setting": "QD Total, 21 NSCLC patients", "value": 28.6, "unit": "%"}, {"measurement": "median duration of response (Kaplan Meier estimates)", "setting": "all treated patients with NSCLC", "value": 6.9, "unit": "months"}]}]}
